For assay [1], the target named is T1, human RAGE (Homo sapiens, UniProt Q15109).
T1 construct: human RAGE plasmid (including full-length human RAGE cDNA); expressed in transfected cells; host or cells: C6 glioma cells carrying pNF-κB-Luc plasmid and human RAGE plasmid
The experiment in a line: RAGE agonist activity of reaction samples (120° C., 60 minutes), NF-κB luciferase assay in C6 glioma cells. The format is cell-based, rat. Conditions: Test Example 2. Here is the method: Food-derived proteins, carbohydrates and a phosphate buffer solution were charged in a 30 mL glass test tube in each amount shown in Table 6, followed by sealing and stirring, and then the mixture was reacted in an autoclave at 120° C. for 60 minutes. Next, the reactant was fractionated by centrifugation at 3,000 rpm for 3 hours using an ultrafiltration unit (VIVA SPIN 20, manufactured by Sartorius Corporation). The obtained low molecular weight fraction was used as a sample for determination of 3-DG, while the obtained high molecular weight fraction was used as a sample for the determination of fluorescent AGEs, RAGE agonist activity and RAGE antagonist activity. Food-derived proteins and carbohydrates used are as follows:
Using Luciferase Assay System (manufactured by Promega Corporation), evaluation of RAGE agonist activity was performed. (Day 1) According to the methods disclosed in Diabetes, 2006, vol. 55, pp. 2510-2522, C6 glioma cells into which pNF-κB-Luc plasmid (manufactured by Stratagene Corporation) and human RAGE plasmid (including full-length human RAGE cDNA) have been introduced were seeded at 100 μL/well into a 96-well plate and cultured in a CO2 incubator until the cells were confluent. For the culture, 10% FBS/DMEM medium was used. (Day 2) The medium was removed, and after wells were washed with 300 μL of serum-free DMEM medium, 100 μL of 0.1% FBS/DMEM medium was slowly added. Then, the medium was incubated overnight in a CO2 incubator. (Day 3) The sample was diluted using the medium, and 50 μL of the diluted sample was added to each well. AGE-BSA in which AGE was formed with glyceraldehydes (50 μg/mL) was added to a control well. After incubation in a CO2 incubator for 4 hours, the medium was removed and wells were washed 2 times with 300 μL of PBS (−). Then, 25 μL of 1× lysis buffer was added on ice. After the plate was shaken for 15 seconds, 20 μL of lysate was charged in a new white plate. Further 100 μL of a luciferase assay reagent was added, and a […] was measured by a luminometer. Using 5 μL of lysate, quantitative determination of protein was also performed.

The test system of assay [2] is CML. The assay can be described thus: Quantitative determination of CML (CircuLex ELISA kit) after reaction at 120° C. for 60 minutes. Conditions: Test Example 1; for CML: lysine + arginine 0.2 g each, carbohydrate 3.40 g each, 120° C., 60 minutes. The assay is classed as biochemical. Here is the method:
Amino acids, carbohydrates and a phosphate buffer solution were charged in a 30 mL glass test tube in each amount shown in Table 1, followed by sealing and stirring. […] The filtrate thus obtained was used as a sample. The amino acids and carbohydrates used are as follows. Using CircuLex CML/Nε-(carboxymethyl) lysine ELISA kit (manufactured by CycLex Co., Ltd.), quantitative determination of CML was performed. Thirty (30) or more minutes before use, reagents and CML solid-phase wells were put to room temperature. […] By performing dilution with standard dilution buffers, standards 1 to 7 were prepared. The sample was diluted as necessary with sample dilution buffers. A CML-HSA standard and 60 μL of the sample were dispensed into a 96-well plate, which is not an accessory to the kit. Next, ultrapure water (Milli-Q water) was added to a first antibody powder, and by diluting with sample dilution buffers, a first antibody solution was prepared, and then 60 μL of the antibody solution was dispensed into the plate and mixed. […] Then, the reaction solution was discarded, and 350 μL of rinsing fluid was dispensed to wash the plate. The washing was performed for 4 times. After liquid on the plate was removed, 100 μL of a second antibody solution was dispensed and reacted at 25° C. for 1 hour while being shaken at 300 rpm. The reaction solution was discarded, and the plate was washed for 4 times with 350 μL of rinsing fluid again. Liquid on the plate was removed, and 100 μL of a color coupler was dispensed. Then, the solution was left to stand for 10 minutes under a light shielding condition while being shaken at 300 rpm. Finally, 100 μL of a reaction stop solution was dispensed, and within 30 minutes after the dispensing, measurement was performed at main wavelength 450 nm/reference wavelength 595 nm using a micro-plate reader. The concentration of CML was determined using the calibration curve of a CML standard solution, based on measurement values of the sample.

The mark [3] stands for this setting: gliadin + carbohydrate, protein 0.1 μg/mL, relative to control (AGE-BSA) = 1.
The mark [4] stands for this setting: lactalbumin + carbohydrate, protein 10 μg/mL, relative to control (AGE-BSA) = 1.
Where [5] appears, read: lactic casein + carbohydrate, protein 1 μg/mL, relative to control (AGE-BSA) = 1.
The mark [6] stands for this setting: ovalbumin + carbohydrate, protein 10 μg/mL, relative to control (AGE-BSA) = 1.
Where [7] appears, read: soybean casein + carbohydrate, protein 0.1 μg/mL, relative to control (AGE-BSA) = 1.

T1 sequence (Q15109 23-404): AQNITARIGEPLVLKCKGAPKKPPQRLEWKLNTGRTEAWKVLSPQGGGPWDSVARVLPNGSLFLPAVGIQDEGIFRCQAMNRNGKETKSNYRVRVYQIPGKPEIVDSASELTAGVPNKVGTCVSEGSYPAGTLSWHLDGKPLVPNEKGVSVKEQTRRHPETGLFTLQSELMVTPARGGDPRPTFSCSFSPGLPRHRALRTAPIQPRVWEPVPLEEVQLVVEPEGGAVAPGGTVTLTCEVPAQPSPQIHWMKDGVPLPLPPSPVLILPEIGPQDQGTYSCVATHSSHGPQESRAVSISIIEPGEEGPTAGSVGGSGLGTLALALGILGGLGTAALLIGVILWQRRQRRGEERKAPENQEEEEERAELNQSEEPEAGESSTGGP

Turning to `OC[C@H]1O[C@@](CO)(O[C@H]2O[C@H](CO)[C@@H](O)[C@H](O)[C@H]2O)[C@@H](O)[C@@H]1O` [Sucrose, reference compound], the RAGE agonist activity worked out at 0.53 in assay [1] (setting [3]); 0.81 in assay [1] (setting [4]); 0.53 in assay [1] (setting [5]); 1.66 in assay [1] (setting [6]); 0.34 in assay [1] (setting [7]). For the same molecule, the CML in assay [2] is recorded as 17.4 nmol/1 g of amino acid.

Take `OC[C@@H](O)[C@@H](O[C@H]1O[C@H](CO)[C@@H](O)[C@H](O)[C@H]1O)[C@H](O)[C@@H](O)CO` [Maltitol]: the RAGE agonist activity in assay [1] (setting [3]) is 0.51; in assay [1] (setting [4]), 0.79; in assay [1] (setting [5]) it was 0.51; in assay [1] (setting [6]), 1.42; in assay [1] (setting [7]), 0.24; in assay [1] (test sections 2, 5 and 11 (ovalbumin, lactalbumin, lactic casein) compared with sections 1, 4 and 10 containing sucrose) it was “decreased”. Moreover, in assay [2] (amino acids, compared with the test section 1 containing only sucrose), the “production of CML” value is “decreased”. Also, the CML in assay [2] is reported as 15.0 nmol/1 g of amino acid.

The values are drawn from US20130287890A1, “INHIBITOR OF THE PRODUCTION OF ADVANCED GLYCATION END PRODUCTS” (UENO FINE CHEMICALS INDUSTRY, LTD., priority 2012, published 2013).
